# In article PMC6199744, “Development of Chemical Proteomics for the Folateome and Analysis of the Kinetoplastid Folateome” (ACS Infectious Diseases, 2018):
# Experiments:
# TB09.211.1690 = test: Multitargeted bead mixture competition; type: binding; settings: free ligand 100 μM, T. brucei lysate
# PTR-1 = PTR-1 (Trypanosoma brucei brucei, UniProt O76290); test: Individual bead pull down with competing free ligand; settings: competing free ligand 100 μM; bead = immobilized compound of the row; T. brucei lysate; read-out: % Inhibition of protein binding to bead, PTR-1, T. brucei
# Description: (§1) Antifolate compounds were immobilized onto NHS-activated sepharose beads/reverse sepharose beads through amide coupling via either an amino or carboxyl group (see Figure 3). The reaction was monitored by observing the disappearance of test compound by LCMS, after which the unreacted coupling sites were capped with NHS-acetate or aminoethanol.
# (§2) Folate metabolizing enzymes are not highly abundant proteins,[19],[20] potentially making their identification by MS difficult. Beads will not only pull down the low abundant high affinity binders but also attract highly abundant, low affinity binders or so-called nonspecific binders. Sometimes, the nonspecific high abundant proteins can mask true binders. The target identification approach used in this study overcomes this issue by performing competition studies. Various concentrations of the free unmodified inhibitor (test compound) were preincubated with the lysate, prior to addition of the beads derivatized with immobilized compounds. Following washing of the bound proteins from the beads and tryptic digest, the peptides were labeled using the TMTs and then pooled. Differences in peptide abundance were analyzed by fragmentation of the isotope-coded isobaric tags in the MS/MS spectra (Figure 5).[9],[11],[12],[21] While the competition experiments with test compound confirm specific binding, it is also possible that some proteins will have a stronger binding interaction with the derivatized beads than the competing test compound, due to subtle differences in the interactions between the immobilized compound and the test compound with the target protein.
# DHFR-TS = DHFR-TS (Trypanosoma brucei brucei, UniProt Q27783); test: as above; settings: competing free ligand 100 μM; bead = immobilized compound of the row; T. brucei lysate; read-out: % Inhibition of protein binding to bead, DHFR-TS, T. brucei
# Description: as §1, §2
# [1] = system: PROTEIN KINASE, PUTATIVE (Tb427.03.1570); test: Multitargeted bead mixture competition; type: binding; settings: free ligand 100 μM, T. brucei lysate
# [2] = system: ACETYLTRANSFERASE, PUTATIVE (Tb427.08.3310); test: Multitargeted bead mixture competition; type: binding; settings: free ligand 100 μM, T. brucei lysate
# [3] = system: HYPOTHETICAL PROTEIN, CONSERVED (Tb427.10.6100); test: Multitargeted bead mixture competition; type: binding; settings: free ligand 100 μM, T. brucei lysate
# PTR-1, sequence (O76290 entry or part of it): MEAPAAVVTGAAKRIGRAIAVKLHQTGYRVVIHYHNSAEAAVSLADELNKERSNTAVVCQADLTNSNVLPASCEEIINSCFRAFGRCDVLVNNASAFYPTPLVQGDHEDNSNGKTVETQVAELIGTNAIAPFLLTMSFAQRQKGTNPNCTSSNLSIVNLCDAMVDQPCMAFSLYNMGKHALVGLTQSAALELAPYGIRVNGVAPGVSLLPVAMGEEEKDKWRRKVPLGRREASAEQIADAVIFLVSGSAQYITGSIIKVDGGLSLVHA
# DHFR-TS, sequence (Q27783 whole entry): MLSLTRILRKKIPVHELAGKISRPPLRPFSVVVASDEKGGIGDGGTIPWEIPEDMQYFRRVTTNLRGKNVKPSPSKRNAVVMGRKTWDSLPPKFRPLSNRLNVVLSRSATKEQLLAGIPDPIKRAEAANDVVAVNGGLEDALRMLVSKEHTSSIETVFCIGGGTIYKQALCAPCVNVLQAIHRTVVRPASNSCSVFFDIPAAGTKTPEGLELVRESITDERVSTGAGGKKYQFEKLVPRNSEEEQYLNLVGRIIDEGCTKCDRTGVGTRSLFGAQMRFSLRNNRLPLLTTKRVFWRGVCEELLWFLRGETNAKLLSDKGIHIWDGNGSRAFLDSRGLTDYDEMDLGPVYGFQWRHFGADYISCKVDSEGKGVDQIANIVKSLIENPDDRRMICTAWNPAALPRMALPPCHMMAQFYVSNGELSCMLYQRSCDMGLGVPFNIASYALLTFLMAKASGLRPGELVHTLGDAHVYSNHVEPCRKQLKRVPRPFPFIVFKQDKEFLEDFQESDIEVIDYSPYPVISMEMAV
smiles,measurement,setting,value
Nc1nc2cccc(-c3ccccc3)c2n1Cc1ccc(Cl)c(Cl)c1 [compound 3],percentage of competition from bead binding,TB09.211.1690,39%
same,inhibition at 100 µM,PTR-1,< 50%
same,inhibition at 100 µM,DHFR-TS,< 50%
same,percentage of competition from bead binding,[1],-2%
same,percentage of competition from bead binding,[2],37%
same,percentage of competition from bead binding,[3],67%
